Experimental data as given in publication PMC12090182, “Repurposing of the RIPK1-Selective Benzo[1,4]oxazepin-4-one Scaffold for the Development of a Type III LIMK1/2 Inhibitor” (ACS Chemical Biology, 2025).

What was measured:
Assay in all cases: biochemical
Assay type in all cases: binding
[1] = biological target: 468 kinases including some pathogenic mutants (Homo sapiens, UniProt Q07002); settings: read-out: Percent Control
[2] = biological target: 468 kinases including some pathogenic mutants (Homo sapiens, UniProt Q8WU08); settings: YANK1 (Entrez STK32A), 100 nM; read-out: Percent Control
[3] = biological target: 468 kinases including some pathogenic mutants (Homo sapiens, UniProt O75385); settings: ULK1 (Entrez ULK1), 1000 nM; read-out: Percent Control
[4] = biological target: 468 kinases including some pathogenic mutants (Homo sapiens, UniProt O15197); settings: EPHB6 (Entrez EPHB6), 100 nM; read-out: Percent Control
[5] = biological target: 468 kinases including some pathogenic mutants (Homo sapiens, UniProt Q86UE8); settings: TLK2 (Entrez TLK2), 1000 nM; read-out: Percent Control
[6] = biological target: 468 kinases including some pathogenic mutants (Homo sapiens, UniProt O75716); settings: STK16 (Entrez STK16), 1000 nM; read-out: Percent Control
[7] = biological target: 468 kinases including some pathogenic mutants (Homo sapiens, UniProt Q6P2M8); settings: CAMK1B (Entrez PNCK), 100 nM; read-out: Percent Control
[8] = biological target: 468 kinases including some pathogenic mutants (Homo sapiens, UniProt Q52WX2); settings: SBK1 (Entrez SBK1), 1000 nM; read-out: Percent Control
[9] = biological target: 468 kinases including some pathogenic mutants (Homo sapiens, UniProt Q16584); settings: MLK3 (Entrez MAP3K11), 100 nM; read-out: Percent Control
[10] = biological target: 468 kinases including some pathogenic mutants (Homo sapiens, UniProt P42336, E542K); settings: read-out: Percent Control
[11] = biological target: 468 kinases including some pathogenic mutants (Homo sapiens, UniProt P21860); settings: ERBB3 (Entrez ERBB3), 100 nM; read-out: Percent Control
[12] = biological target: 468 kinases including some pathogenic mutants (Homo sapiens, UniProt O95835); settings: LATS1 (Entrez LATS1), 100 nM; read-out: Percent Control
[13] = biological target: 468 kinases including some pathogenic mutants (Homo sapiens, UniProt Q9HBH9); settings: MKNK2 (Entrez MKNK2), 1000 nM; read-out: Percent Control
[14] = biological target: 468 kinases including some pathogenic mutants (Homo sapiens, UniProt Q8TD19); settings: NEK9 (Entrez NEK9), 100 nM; read-out: Percent Control
[15] = biological target: 468 kinases including some pathogenic mutants (Homo sapiens, UniProt P54762); settings: EPHB1 (Entrez EPHB1), 100 nM; read-out: Percent Control
[16] = biological target: 468 kinases including some pathogenic mutants (Homo sapiens, UniProt Q9H422); settings: HIPK3 (Entrez HIPK3), 100 nM; read-out: Percent Control
[17] = biological target: 468 kinases including some pathogenic mutants (Homo sapiens, UniProt P17612); settings: PKAC-alpha (Entrez PRKACA), 1000 nM; read-out: Percent Control
[18] = biological target: 468 kinases including some pathogenic mutants (Homo sapiens, UniProt P35590); settings: TIE1 (Entrez TIE1), 100 nM; read-out: Percent Control
[19] = biological target: 468 kinases including some pathogenic mutants (Homo sapiens, UniProt P00519, E255K); settings: read-out: Percent Control
[20] = biological target: 468 kinases including some pathogenic mutants (Homo sapiens, UniProt P0C1S8); settings: WEE2 (Entrez WEE2), 100 nM; read-out: Percent Control
[21] = biological target: 468 kinases including some pathogenic mutants (Homo sapiens, UniProt P53350); settings: PLK1 (Entrez PLK1), 100 nM; read-out: Percent Control
[22] = biological target: 468 kinases including some pathogenic mutants (Homo sapiens, UniProt P35626); settings: GRK3 (Entrez ADRBK2), 100 nM; read-out: Percent Control
[23] = biological target: 468 kinases including some pathogenic mutants (Homo sapiens, UniProt Q8TBX8); settings: PIP5K2C (Entrez PIP4K2C), 100 nM; read-out: Percent Control
[24] = biological target: 468 kinases including some pathogenic mutants (Homo sapiens, UniProt P00519, Q252H)
[25] = biological target: 468 kinases including some pathogenic mutants (Homo sapiens, UniProt P00533, G719S); settings: read-out: Percent Control
[26] = biological target: 468 kinases including some pathogenic mutants (Homo sapiens, UniProt P31749); settings: AKT1 (Entrez AKT1), 100 nM; read-out: Percent Control
[27] = biological target: 468 kinases including some pathogenic mutants (Homo sapiens, UniProt P51817); settings: PRKX (Entrez PRKX), 100 nM; read-out: Percent Control
[28] = biological target: 468 kinases including some pathogenic mutants (Homo sapiens, UniProt P57078); settings: RIPK4 (Entrez RIPK4), 100 nM; read-out: Percent Control
[29] = biological target: 468 kinases including some pathogenic mutants (Homo sapiens, UniProt Q15831); settings: LKB1 (Entrez STK11), 100 nM; read-out: Percent Control
Chain of 468 kinases including some pathogenic mutants (Homo sapiens, UniProt Q15831) (Q15831 whole entry, change not shown): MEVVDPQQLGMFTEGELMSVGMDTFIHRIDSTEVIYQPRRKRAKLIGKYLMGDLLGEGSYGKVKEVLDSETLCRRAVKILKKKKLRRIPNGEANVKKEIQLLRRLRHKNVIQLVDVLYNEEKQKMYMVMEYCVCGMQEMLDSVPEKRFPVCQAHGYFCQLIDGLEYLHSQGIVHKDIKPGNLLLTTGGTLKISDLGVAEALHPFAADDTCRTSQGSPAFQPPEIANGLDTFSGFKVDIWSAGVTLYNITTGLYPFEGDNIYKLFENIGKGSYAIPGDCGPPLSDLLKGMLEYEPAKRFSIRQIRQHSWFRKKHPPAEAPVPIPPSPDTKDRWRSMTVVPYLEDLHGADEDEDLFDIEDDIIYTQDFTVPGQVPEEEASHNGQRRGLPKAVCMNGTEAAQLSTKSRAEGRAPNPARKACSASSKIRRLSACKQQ

Chain of 468 kinases including some pathogenic mutants (Homo sapiens, UniProt O75385) (O75385 whole entry, change not shown): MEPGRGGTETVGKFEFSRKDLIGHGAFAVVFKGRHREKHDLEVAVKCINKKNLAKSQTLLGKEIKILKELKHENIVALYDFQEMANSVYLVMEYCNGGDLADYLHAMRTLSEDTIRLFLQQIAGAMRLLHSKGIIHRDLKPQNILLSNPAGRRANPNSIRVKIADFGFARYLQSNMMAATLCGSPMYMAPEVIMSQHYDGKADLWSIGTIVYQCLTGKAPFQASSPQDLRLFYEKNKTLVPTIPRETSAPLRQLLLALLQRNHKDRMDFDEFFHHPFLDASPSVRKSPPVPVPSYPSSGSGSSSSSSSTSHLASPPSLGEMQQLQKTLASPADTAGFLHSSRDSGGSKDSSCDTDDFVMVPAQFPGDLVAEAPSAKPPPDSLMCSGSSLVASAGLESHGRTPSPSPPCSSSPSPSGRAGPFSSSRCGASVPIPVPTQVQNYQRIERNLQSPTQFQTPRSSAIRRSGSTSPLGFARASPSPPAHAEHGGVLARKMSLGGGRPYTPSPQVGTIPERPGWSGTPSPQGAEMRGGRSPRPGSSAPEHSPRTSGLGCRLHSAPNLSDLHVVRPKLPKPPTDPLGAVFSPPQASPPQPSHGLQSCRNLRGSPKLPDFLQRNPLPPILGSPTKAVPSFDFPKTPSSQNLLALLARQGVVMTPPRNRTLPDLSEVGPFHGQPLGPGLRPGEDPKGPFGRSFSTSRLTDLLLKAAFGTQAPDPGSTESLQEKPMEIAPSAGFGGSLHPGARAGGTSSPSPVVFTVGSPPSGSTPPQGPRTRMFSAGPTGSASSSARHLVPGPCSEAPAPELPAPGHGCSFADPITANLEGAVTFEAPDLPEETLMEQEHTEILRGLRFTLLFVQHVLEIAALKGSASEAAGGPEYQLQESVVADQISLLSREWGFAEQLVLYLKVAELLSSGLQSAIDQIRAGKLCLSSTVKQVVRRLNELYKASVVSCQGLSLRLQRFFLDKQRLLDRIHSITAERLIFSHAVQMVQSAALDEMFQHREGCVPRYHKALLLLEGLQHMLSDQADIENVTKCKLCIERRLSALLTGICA
Chain of 468 kinases including some pathogenic mutants (Homo sapiens, UniProt Q9HBH9) (Q9HBH9 whole entry, change not shown): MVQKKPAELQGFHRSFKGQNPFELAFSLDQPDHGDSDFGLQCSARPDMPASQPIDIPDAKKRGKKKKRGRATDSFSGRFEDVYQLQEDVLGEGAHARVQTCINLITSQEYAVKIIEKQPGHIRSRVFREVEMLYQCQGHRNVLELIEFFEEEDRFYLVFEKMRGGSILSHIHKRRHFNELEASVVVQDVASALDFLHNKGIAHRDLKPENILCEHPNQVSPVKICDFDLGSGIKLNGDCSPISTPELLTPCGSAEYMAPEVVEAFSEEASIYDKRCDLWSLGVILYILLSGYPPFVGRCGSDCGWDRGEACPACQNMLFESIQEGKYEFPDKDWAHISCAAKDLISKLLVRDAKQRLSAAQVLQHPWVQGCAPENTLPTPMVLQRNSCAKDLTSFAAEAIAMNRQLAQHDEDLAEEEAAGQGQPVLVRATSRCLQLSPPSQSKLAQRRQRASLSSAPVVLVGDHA
Chain of 468 kinases including some pathogenic mutants (Homo sapiens, UniProt Q86UE8) (Q86UE8 whole entry, change not shown): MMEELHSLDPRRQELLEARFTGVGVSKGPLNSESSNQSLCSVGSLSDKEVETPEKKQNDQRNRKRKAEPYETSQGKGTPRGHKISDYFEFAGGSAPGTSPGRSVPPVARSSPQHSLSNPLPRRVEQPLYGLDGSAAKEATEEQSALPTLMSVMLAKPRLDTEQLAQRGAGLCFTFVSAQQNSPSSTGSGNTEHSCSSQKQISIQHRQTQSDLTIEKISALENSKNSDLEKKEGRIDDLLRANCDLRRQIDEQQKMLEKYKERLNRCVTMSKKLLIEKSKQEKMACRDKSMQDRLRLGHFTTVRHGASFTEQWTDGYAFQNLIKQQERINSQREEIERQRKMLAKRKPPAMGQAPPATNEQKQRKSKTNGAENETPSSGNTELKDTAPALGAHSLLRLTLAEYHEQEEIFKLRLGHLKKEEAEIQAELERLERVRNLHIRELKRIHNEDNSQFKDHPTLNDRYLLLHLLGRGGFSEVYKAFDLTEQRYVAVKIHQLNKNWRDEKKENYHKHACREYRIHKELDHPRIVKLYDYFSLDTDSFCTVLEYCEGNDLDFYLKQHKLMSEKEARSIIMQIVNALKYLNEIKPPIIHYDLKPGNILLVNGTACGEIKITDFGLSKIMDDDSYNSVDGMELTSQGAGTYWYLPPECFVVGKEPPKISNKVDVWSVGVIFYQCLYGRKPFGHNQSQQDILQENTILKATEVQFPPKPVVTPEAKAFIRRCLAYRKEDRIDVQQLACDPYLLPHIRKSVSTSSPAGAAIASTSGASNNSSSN
Chain of 468 kinases including some pathogenic mutants (Homo sapiens, UniProt Q8TD19) (Q8TD19 whole entry, change not shown): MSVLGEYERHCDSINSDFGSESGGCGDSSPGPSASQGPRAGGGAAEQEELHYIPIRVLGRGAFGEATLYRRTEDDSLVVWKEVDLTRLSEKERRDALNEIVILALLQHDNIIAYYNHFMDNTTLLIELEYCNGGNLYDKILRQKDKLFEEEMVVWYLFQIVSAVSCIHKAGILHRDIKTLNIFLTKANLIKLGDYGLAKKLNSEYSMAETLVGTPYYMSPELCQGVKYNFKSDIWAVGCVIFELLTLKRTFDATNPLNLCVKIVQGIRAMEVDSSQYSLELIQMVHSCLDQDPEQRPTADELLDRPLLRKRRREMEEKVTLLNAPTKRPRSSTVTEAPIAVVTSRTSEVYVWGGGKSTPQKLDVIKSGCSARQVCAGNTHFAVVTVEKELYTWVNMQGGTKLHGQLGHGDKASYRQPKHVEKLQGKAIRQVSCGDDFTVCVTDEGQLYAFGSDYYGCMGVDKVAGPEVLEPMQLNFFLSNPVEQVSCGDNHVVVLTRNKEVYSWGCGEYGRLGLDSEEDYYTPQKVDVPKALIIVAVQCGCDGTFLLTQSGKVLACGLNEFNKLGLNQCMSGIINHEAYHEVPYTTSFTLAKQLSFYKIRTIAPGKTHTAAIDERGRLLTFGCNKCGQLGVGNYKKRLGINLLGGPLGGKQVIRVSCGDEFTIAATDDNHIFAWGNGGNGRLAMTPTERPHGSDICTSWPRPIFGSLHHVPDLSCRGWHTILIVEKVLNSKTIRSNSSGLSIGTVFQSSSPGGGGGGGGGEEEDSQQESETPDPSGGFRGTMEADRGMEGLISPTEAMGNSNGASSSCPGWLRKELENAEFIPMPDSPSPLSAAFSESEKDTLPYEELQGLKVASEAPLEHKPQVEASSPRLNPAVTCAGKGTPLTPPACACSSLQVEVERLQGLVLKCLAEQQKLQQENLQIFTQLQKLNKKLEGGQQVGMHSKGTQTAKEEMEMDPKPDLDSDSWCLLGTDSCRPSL
Chain of 468 kinases including some pathogenic mutants (Homo sapiens, UniProt O75716) (O75716 whole entry, change not shown): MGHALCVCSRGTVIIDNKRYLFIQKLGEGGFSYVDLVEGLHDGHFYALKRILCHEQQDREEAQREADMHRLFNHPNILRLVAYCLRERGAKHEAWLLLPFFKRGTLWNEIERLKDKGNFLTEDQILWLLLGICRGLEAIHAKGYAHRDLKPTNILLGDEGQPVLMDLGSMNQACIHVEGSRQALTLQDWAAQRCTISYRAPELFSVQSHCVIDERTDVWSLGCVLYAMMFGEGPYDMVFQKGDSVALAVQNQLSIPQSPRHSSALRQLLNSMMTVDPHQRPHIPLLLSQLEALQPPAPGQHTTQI
Chain of 468 kinases including some pathogenic mutants (Homo sapiens, UniProt P0C1S8) (P0C1S8 whole entry, change not shown): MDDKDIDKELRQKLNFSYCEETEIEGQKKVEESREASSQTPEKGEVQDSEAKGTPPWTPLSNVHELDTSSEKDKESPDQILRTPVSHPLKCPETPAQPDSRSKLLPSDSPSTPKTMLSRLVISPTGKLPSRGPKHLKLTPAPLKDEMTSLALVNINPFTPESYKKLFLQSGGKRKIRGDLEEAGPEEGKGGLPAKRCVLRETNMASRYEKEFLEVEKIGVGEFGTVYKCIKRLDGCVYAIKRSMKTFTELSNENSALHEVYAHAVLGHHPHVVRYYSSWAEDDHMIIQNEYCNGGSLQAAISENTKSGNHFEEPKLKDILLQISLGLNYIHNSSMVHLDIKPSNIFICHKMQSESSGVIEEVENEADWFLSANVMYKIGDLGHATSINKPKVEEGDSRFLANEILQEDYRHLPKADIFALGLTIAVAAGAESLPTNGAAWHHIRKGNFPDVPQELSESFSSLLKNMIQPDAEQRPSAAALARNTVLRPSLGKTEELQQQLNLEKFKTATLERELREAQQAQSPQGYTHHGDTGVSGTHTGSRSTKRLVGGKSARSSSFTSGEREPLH
Chain of 468 kinases including some pathogenic mutants (Homo sapiens, UniProt P31749) (P31749 whole entry, change not shown): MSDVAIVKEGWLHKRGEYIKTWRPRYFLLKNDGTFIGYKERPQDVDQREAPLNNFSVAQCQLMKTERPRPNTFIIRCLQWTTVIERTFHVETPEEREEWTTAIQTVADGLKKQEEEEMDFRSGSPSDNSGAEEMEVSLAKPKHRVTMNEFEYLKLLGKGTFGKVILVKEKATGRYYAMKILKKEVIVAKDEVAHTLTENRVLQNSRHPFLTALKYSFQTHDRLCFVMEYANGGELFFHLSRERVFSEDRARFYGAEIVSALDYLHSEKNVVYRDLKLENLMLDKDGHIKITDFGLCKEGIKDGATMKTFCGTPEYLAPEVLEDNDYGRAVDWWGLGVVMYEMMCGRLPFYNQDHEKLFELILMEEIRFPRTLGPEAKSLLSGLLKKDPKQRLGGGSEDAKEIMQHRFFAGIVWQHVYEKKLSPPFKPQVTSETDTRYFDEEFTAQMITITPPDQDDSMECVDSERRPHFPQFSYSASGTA

CN1C(=O)[C@@H](N2CCc3c(nn(Cc4ccccc4)c3C(N)=O)C2=O)COc2cc(Cl)ccc21 [Compound 10, (S)-2-benzyl-6-(8-chloro-5-methyl-4-oxo-2,3,4,5-tetrahydrobenzo[b][1,4]oxazepin-3-yl)-7-oxo-4,5,6,7-tetrahydro-2H-pyrazolo[3,4-c]pyridine-3-carboxamide]
remaining activity at 0.1 µM [1]: 100% | remaining activity at 0.1 µM [2]: 89% | remaining activity at 1 µM [3]: 100% | remaining activity at 0.1 µM [4]: 91% | remaining activity at 1 µM [5]: 100% | remaining activity at 1 µM [6]: 100% | remaining activity at 0.1 µM [7]: 79% | remaining activity at 1 µM [8]: 100% | remaining activity at 0.1 µM [9]: 100% | remaining activity at 0.1 µM [10]: 62% | remaining activity at 0.1 µM [11]: 84% | remaining activity at 0.1 µM [12]: 62% | remaining activity at 1 µM [13]: 100% | remaining activity at 0.1 µM [14]: 88% | remaining activity at 0.1 µM [15]: 95% | remaining activity at 0.1 µM [16]: 77% | remaining activity at 1 µM [17]: 100% | remaining activity at 0.1 µM [18]: 68% | remaining activity at 0.1 µM [19]: 84% | remaining activity at 0.1 µM [20]: 77% | remaining activity at 0.1 µM [21]: 68% | remaining activity at 0.1 µM [22]: 98% | remaining activity at 0.1 µM [23]: 91% | Percent Control ([24]; listed as LIJTF500025): 88% | remaining activity at 0.1 µM ([24]; read-out: Percent Control): 71% | remaining activity at 0.1 µM [25]: 100% | remaining activity at 0.1 µM [26]: 87% | remaining activity at 0.1 µM [27]: 77% | remaining activity at 0.1 µM [28]: 96% | remaining activity at 0.1 µM [29]: 97%
